Broadly, the Kd is a measure of binding affinity in units of concentration.

The target in the assay is T1, TMV CP (tobacco mosaic virus coat protein) (Tobacco mosaic virus (vulgare), UniProt P69687).
T1 construct: labelled with Monolith NT Protein Labeling Kit Red
As to the kind of experiment: microscale thermophoresis. In kind it is binding. From the text: microscale thermophoresis on TMV CP (tobacco mosaic virus coat protein)
Background: Microscale thermophoresis detects binding through changes in fluorescence in a small temperature gradient.

T1 sequence (P69687 2-159 limits assumed): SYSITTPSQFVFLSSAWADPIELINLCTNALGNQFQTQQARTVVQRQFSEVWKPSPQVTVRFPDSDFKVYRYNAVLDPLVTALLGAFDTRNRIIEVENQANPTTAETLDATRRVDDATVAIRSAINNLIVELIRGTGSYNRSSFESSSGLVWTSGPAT

In turn, `COc1ccc(/C=C/C(=O)c2ccc(OCCSc3ncnc4ccccc34)cc2)cc1OC` [M6, (E)-3-(3,4-Dimethoxyphenyl)-1-(4-(2-(quinazolin-4-ylthio)ethoxy)phenyl)prop-2-en-1-one] showed a Kd of 31.1 ± 1.83 µM. The compound `NC(=O)c1ncn([C@@H]2O[C@H](CO)[C@@H](O)[C@H]2O)n1` [Ribavirin] came in with an equilibrium dissociation constant (Kd) of 511 ± 33.1 µM. With `O=C(/C=C/c1ccc(Cl)cc1)c1ccc(OCCSc2ncnc3ccccc23)cc1` [M15], binding was put at a Kd of 346 ± 23.9 µM.

The values are drawn from article PMC6332188, “Synthesis, Antiviral Bioactivity of Novel 4-Thioquinazoline Derivatives Containing Chalcone Moiety” (Molecules, 2015).
